Test results taken from ChEMBL document CHEMBL5727262, “Tricyclic compound and JAK inhibitor” (2019).

Key:
[1] = target: Tyrosine-protein kinase JAK2 (Homo sapiens, UniProt O60674); test: (§1) Enzyme Assay: The JAK inhibitory activities of compounds of the present invention were measured.The enzymes (JAK1, JAK2, JAK3 and Tyk2) were purchased from Carna Biosciences, Inc.As the substrate for the enzymes (hereinafter referred to as the substrate), LANCE Ultra ULight-JAK-1 (Tyr1023) Peptide (manufactured by PerkinElmer Co., Ltd.) was used.As the antibody for detecting phosphorylation of the substrate, LANCE Ultra Europium-anti-phospho tyrosine antibody (PT66) (manufactured by PerkinElmer Co., Ltd.) was used.The other reagents are purchased from the following suppliers.Adenosine triphosphate (ATP): Sigma-Aldrich4-(2-Hydroxyethyl)-1-piperazineethanesulfonic acid (HEPES): DOJINDO LABORATORIESGlycol ether diamine tetraacetic acid (EGTA): DOJINDO LABORATORIESMagnesium chloride (MgCl2): Wako Pure Chemical Industries, Ltd.Dithiothreitol (DTT): Wako Pure Chemical Industries, Ltd.Tween 20: Sigma-AldrichEthylenediaminetetraacetic acid (EDTA): DOJINDO LABORATORIESThe compounds of the present invention, the enzymes (JAK1, JAK2, JAK3 and Tyk2), the substrate and ATP were used for the assays after diluted with the assay buffer.The composition of the assay buffer is given below.HEPES (pH7.5): 50 mMEGTA: 1 mMMgCl2: 10 mMDTT: 2 mMTween 20: 0.01% (wt/wt)Dilutions were made at such concentrations and dispensed on a well plate, which will be described later, in such volumes that the following final concentrations would be achieved on the well plate.
[2] = target: Non-receptor tyrosine-protein kinase TYK2 (Homo sapiens, UniProt P29597); test: as §1, with “plate. The enzyme concentrations and the ATP concentrations in the respective enzyme (JAK1, JAK2, JAK3 and Tyk2) assays were as follows.JAK1 enzyme assay; the enzyme concentration was 0.5 μg/mL, and the ATP concentration was 70 μM.JAK2 enzyme assay; the enzyme concentration was 0.013 μg/mL, and the ATP concentration was 10 μM.JAK3 enzyme assay; the enzyme concentration was 0.020 μg/mL, and the ATP concentration was 3 μM.Tyk2 enzyme assay; the enzyme concentration was 0.25 μg/mL and the ATP concentration was 20 μM.The concentration of the substrate for the enzymes was 25 nM.The concentration of EDTA was 15 mM.The concentration of PT66 was 2 nM.” for “plate.”
[3] = target: Tyrosine-protein kinase JAK1 (Homo sapiens, UniProt P23458); test: as above
[4] = target: T1, Tyrosine-protein kinase JAK3 (Homo sapiens, UniProt P52333); test: as above
T1 sequence (P52333 whole entry): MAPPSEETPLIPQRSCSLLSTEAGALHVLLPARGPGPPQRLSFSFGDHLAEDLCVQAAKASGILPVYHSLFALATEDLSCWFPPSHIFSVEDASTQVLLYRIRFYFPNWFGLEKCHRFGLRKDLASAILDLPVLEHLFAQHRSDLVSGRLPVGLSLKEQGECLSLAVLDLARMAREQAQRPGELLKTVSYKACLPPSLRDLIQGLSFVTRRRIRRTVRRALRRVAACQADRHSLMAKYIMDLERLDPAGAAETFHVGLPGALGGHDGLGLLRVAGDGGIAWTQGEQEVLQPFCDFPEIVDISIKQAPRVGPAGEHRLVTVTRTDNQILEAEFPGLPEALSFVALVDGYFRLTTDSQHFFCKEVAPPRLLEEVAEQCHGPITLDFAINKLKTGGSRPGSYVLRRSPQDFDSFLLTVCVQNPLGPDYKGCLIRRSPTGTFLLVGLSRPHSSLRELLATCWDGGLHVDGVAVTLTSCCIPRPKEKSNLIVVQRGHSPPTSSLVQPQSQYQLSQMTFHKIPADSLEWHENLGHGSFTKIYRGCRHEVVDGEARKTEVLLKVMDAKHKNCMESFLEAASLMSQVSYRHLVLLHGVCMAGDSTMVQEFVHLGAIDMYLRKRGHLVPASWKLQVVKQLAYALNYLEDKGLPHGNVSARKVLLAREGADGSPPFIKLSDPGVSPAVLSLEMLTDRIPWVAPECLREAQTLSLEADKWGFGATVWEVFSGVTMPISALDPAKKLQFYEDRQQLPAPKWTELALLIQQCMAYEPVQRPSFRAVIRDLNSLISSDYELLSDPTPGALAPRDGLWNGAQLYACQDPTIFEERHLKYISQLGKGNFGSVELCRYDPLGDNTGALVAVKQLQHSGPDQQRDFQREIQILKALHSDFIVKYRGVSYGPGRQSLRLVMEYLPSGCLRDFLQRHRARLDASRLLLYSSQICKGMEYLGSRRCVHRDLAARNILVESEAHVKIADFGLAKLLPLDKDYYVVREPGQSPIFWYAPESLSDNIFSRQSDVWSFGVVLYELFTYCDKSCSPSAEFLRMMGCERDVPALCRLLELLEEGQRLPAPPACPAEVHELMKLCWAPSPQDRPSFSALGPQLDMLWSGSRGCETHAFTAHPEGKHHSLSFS

Chain of Tyrosine-protein kinase JAK2 (O60674 whole entry): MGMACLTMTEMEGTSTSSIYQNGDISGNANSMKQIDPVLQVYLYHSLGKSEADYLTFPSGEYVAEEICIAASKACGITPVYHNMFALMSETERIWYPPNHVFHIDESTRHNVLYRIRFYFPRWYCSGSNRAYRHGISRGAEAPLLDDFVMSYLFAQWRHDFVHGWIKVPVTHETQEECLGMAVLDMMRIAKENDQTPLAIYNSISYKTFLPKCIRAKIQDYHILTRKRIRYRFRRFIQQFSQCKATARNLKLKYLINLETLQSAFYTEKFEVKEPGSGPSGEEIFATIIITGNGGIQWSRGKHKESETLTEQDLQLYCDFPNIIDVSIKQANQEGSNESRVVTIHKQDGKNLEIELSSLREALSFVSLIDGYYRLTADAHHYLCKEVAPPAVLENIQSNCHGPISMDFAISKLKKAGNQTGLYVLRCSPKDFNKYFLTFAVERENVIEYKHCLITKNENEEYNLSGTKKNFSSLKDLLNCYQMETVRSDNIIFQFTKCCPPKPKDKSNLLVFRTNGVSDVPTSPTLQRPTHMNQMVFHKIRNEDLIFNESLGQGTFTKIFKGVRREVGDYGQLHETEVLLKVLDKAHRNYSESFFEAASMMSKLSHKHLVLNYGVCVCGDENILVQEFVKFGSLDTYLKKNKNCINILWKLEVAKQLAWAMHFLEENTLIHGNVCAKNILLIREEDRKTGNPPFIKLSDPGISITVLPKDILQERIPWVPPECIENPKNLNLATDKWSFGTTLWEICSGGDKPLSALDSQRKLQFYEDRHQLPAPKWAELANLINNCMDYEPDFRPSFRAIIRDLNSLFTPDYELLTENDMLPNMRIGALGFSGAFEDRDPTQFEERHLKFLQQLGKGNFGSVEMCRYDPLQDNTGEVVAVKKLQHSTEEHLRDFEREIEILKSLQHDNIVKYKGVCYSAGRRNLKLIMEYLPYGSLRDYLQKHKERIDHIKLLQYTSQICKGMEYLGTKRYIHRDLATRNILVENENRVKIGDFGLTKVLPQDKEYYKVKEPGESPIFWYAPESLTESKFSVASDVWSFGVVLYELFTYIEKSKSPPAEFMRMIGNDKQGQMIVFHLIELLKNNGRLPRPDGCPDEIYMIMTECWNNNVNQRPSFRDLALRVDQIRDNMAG
Chain of Non-receptor tyrosine-protein kinase TYK2 (P29597 whole entry): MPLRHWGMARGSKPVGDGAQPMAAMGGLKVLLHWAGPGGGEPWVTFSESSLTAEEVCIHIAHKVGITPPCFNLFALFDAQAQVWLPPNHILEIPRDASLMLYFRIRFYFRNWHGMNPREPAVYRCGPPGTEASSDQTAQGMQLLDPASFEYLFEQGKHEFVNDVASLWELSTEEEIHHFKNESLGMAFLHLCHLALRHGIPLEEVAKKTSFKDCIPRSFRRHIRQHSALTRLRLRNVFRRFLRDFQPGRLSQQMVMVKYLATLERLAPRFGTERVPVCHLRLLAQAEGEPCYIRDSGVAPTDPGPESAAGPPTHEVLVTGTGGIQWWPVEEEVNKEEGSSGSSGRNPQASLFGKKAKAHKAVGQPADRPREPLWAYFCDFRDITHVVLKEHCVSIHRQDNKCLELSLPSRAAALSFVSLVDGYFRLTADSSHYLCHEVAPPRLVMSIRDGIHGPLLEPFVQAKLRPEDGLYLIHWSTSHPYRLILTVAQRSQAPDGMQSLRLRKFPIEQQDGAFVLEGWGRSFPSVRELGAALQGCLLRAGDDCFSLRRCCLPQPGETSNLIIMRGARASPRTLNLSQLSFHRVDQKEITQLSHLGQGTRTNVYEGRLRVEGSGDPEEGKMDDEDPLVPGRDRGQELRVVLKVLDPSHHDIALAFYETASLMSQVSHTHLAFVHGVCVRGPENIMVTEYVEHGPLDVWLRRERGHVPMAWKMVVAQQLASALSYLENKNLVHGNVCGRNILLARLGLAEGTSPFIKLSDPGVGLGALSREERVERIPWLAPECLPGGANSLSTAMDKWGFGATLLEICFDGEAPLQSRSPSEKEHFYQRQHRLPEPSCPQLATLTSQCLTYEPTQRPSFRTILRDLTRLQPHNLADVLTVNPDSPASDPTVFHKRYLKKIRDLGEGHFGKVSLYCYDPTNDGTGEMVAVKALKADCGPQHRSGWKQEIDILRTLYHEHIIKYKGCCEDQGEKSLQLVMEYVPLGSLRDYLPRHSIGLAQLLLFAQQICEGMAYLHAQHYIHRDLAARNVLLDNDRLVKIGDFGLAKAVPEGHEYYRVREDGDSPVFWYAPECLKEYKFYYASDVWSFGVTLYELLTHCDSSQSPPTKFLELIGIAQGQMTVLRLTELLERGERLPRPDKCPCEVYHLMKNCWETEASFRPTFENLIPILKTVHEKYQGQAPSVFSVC
Chain of Tyrosine-protein kinase JAK1 (P23458 whole entry): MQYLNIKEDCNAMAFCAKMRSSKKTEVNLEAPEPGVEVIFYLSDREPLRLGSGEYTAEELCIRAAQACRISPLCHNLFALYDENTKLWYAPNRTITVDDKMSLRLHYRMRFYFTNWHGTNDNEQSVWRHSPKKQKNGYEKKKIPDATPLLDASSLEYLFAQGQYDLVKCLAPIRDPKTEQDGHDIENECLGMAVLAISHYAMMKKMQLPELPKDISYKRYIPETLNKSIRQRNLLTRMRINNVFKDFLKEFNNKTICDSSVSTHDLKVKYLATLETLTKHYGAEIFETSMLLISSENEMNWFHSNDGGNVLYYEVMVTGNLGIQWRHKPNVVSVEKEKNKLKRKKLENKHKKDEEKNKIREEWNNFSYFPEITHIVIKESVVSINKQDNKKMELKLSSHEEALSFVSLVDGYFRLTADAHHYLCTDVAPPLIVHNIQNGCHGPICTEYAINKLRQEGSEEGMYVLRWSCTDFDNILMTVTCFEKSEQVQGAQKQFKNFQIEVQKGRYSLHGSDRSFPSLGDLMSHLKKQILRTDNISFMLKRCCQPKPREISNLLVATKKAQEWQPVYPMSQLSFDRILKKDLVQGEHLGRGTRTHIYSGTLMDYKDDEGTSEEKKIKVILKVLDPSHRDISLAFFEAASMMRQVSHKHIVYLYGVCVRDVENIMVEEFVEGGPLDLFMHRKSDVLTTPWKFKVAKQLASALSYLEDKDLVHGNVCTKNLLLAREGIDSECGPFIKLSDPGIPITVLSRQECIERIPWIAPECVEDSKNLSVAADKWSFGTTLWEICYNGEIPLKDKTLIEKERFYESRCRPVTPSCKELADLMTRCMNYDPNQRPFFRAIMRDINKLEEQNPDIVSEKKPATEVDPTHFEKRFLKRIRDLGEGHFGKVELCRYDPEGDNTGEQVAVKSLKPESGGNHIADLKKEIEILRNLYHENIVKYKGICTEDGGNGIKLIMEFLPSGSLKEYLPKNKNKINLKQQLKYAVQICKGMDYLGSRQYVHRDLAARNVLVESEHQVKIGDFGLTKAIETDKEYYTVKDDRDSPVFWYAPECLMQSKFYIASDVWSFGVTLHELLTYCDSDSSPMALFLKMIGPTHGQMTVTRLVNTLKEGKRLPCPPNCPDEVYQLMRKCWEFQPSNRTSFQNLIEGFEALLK

| IC50 [1] [nM] | IC50 [2] [nM] | IC50 [3] [nM] | IC50 [4] [nM] | SMILES |
| --- | --- | --- | --- | --- |
| 2 | 11 | 0.74 | 5.1 | N#CC[C@H](OCC1CCC(N2C=CC(=O)C3C=Nc4[nH]ccc4C32)CC1)C(F)(F)F (stereo partly drawn) |
| 1.5 | 26 | 0.35 | 2.9 | O=C1NC(=O)[C@@H](C2CCC(COCCC(F)(F)F)CC2)C2c3cc[nH]c3N=CC12 (stereo partly drawn) |
| – | 10 | 0.59 | 2.7 | O=C1C=CN(C2CCC(COCC(F)(F)F)CC2)C2c3cc[nH]c3N=CC12 (stereo not drawn) |
| 5.1 | 18 | 1.7 | 10 | N#CC[C@@H](NCC1CCC(N2C=CC(=O)C3C=Nc4[nH]ccc4C32)CC1)C(F)(F)F (stereo partly drawn) |
| 1.9 | 39 | 0.41 | 7.1 | Cc1cnn(CC2CCC(N3C=CC(=O)C4C=Nc5[nH]ccc5C43)CC2)c1 (stereo not drawn) |
| 1.6 | 19 | 0.68 | 2.5 | O=C1C=CN(C2CCC(COCCC(F)(F)F)CC2)C2c3cc[nH]c3N=CC12 (stereo not drawn) |
